Experimental data published in patent US6653508B2, “3-amino-2-benzyl-1-phenylpropane derivatives” (Gruenenthal GmbH, priority 1999, dated 2003).
Counter-ions that a name gives are not always drawn.

system: phenylquinone-induced writhing reactions in mice; test: Phenylquinone-induced writhing test in mice; type: in vivo; conditions: Mus musculus, iv; male mice, 10 mg/kg i.v.; phenylquinone i.p. 10 minutes after test substance; writhing counted 5-20 minutes after phenylquinone
Procedure: The analgesic effectiveness of the compounds according to the invention is investigated in mice by the phenylquinone-induced writhing test as modified by I. C. Hendershot, J. Forsaith in J. Pharmacol. Exp. Ther. 125, 237-240 (1959). For this purpose male mice weighing 25-30 g are used. Groups in each case of 10 animals received per substance a dose, 10 minutes after intravenous administration of the test substances, 0.3 ml/mouse of a 0.02% aqueous solution of phenylquinone (phenylbenzoquinone, Sigma, Deisenhofen; solution prepared under the addition of 5% ethanol and storage in a water bath at 45° C.) applied intraperitoneally. The animals were then placed individually in observation cages. The number of pain-induced stretching movements (so-called writhing reactions=straightening of the body with stretching of the rear extremities) was counted with a push-button counter 5-20 minutes after administration of the phenyl quinone. Animals that had only received physiological saline solution with the phenylquinone served as controls.
All substances were tested in a standard dose of 10 mg/kg. The percentage inhibition (% inhibition) of the writhing reactions achieved by a substance was calculated according to the following formula: [formula]

SMILES	inhibition in vivo at 10 mg/kg
CN(C)CC(Cc1ccccc1)C(=O)c1cccc(OCc2ccccc2)c1 (racemic) [Example 2, (2RS)-1-(3-benzyloxyphenyl)-2-dimethylaminomethyl-3-phenylpropan-1-one hydrochloride]	85%
CN(C)CC(Cc1ccccc1)C(=O)c1cccc(O)c1.Cl (racemic) [Example 6, (2RS)-2-benzyl-3-dimethylamino-1-(3-hydroxyphenyl)-propan-1-one hydrochloride]	84%
COc1cc(OC)cc(C(=O)C(Cc2ccccc2)CN(C)C)c1 (racemic) [Example 7, (2RS)-2-benzyl-1-(3,5-dimethoxyphenyl)-3-dimethylamino-propan-1-one hydrochloride]	75%
COc1ccc(OC)c(C(=O)C(Cc2ccccc2)CN(C)C)c1.Cl (racemic) [Example 8, (2RS)-2-benzyl-1-(2,5-dimethoxyphenyl)-3-dimethylaminopropan-1-one hydrochloride]	92%
CN(C)CC(Cc1ccccc1)C(=O)c1cc(Cl)ccc1Cl (racemic) [Example 13, (2RS)-2-benzyl-1-(2,5-dichlorophenyl)-3-dimethylaminopropan-1-one hydrochloride]	70%
CSc1cccc(C(=O)C(Cc2ccccc2)CN(C)C)c1.Cl (racemic) [Example 22, (2RS)-2-benzyl-3-dimethylamino-1-(3-methylsulfanylphenyl)-propan-1-one hydrochloride]	62%
CN(C)CC(Cc1ccccc1)C(=O)c1cccc(C#N)c1.Cl (racemic) [Example 26, (2RS)-3-(2-benzyl-3-dimethylaminopropionyl)-benzonitrile hydrochloride]	79%
CN(C)CC(Cc1ccccc1)C(=O)c1ccc2cc(O)ccc2c1.Cl (racemic) [Example 29, (2RS)-2-benzyl-3-dimethylamino-1-(6-hydroxynaphthalen-2-yl)-propan-1-one hydrochloride]	82%
C/C=C(\c1cccc(OC)c1)C(Cc1ccccc1)CN(C)C (racemic) [Example 65, Z-(2RS)-[2-benzyl-3-(3-methoxyphenyl)-pent-3-enyl]-dimethyl-amine hydrochloride]	100%
COc1ccc(C(=O)C(Cc2ccccc2)CN(C)C)c(C)c1C (racemic) [Example 71, (2RS)-2-benzyl-3-dimethylamino-1-(4-methoxy-2,3-dimethylphenyl)-propan-1-one hydrochloride]	94%
COc1cccc(C(=O)C(Cc2cccc(Cl)c2)CN(C)C)c1 (racemic) [Example 72, (2RS)-2-(3-chlorobenzyl)-3-dimethylamino-1-(3-methoxyphenyl)-propan-1-one hydrochloride]	85%
COc1cccc(C(=O)[C@@H](Cc2ccccc2)CN(C)C)c1 [Example 11, (−)-(S)-2-benzyl-3-dimethylamino-1-(3-methoxyphenyl)-propan-1-one hydrochloride]	90%

system: not given; test: not given; conditions: not given

SMILES	melting point
COc1cccc(C(=O)[C@@H](CN(C)C)[C@H](c2ccccc2)c2cccc(OC)c2)c1.Cl (racemic)	139.1 °C
CC[C@@H](c1ccccc1)[C@H](CN(C)C)C(=O)c1cccc(OC)c1.Cl (racemic)	89.5 °C
CNCC(Cc1cccc(C)c1)C(=O)c1cccc(OC)c1.Cl (racemic)	118 to 120 °C
CN(C)CC(Cc1ccccc1)C(=O)c1cccc(O)c1.Cl (racemic) [Example 6, (2RS)-2-benzyl-3-dimethylamino-1-(3-hydroxyphenyl)-propan-1-one hydrochloride]	169 °C
COc1ccc(OC)c(C(=O)C(Cc2ccccc2)CN(C)C)c1.Cl (racemic) [Example 8, (2RS)-2-benzyl-1-(2,5-dimethoxyphenyl)-3-dimethylaminopropan-1-one hydrochloride]	149 °C
CSc1cccc(C(=O)C(Cc2ccccc2)CN(C)C)c1.Cl (racemic) [Example 22, (2RS)-2-benzyl-3-dimethylamino-1-(3-methylsulfanylphenyl)-propan-1-one hydrochloride]	118 °C
CN(C)CC(Cc1ccccc1)C(=O)c1cccc(C#N)c1.Cl (racemic) [Example 26, (2RS)-3-(2-benzyl-3-dimethylaminopropionyl)-benzonitrile hydrochloride]	154 °C
CN(C)CC(Cc1ccccc1)C(=O)c1ccc2cc(O)ccc2c1.Cl (racemic) [Example 29, (2RS)-2-benzyl-3-dimethylamino-1-(6-hydroxynaphthalen-2-yl)-propan-1-one hydrochloride]	180 to 182 °C

The next lines start with the values.

melting point	SMILES
114 °C	CN(C)CC(Cc1ccccc1)C(=O)c1cccc(Cl)c1Cl.Cl (racemic)
141 °C	COc1ccc(C(=O)C(Cc2ccccc2)CN(C)C)c(OC)c1OC.Cl (racemic)
125 °C	COc1cc(C(=O)C(Cc2ccccc2)CN(C)C)cc(OC)c1OC.Cl (racemic)
177 °C	CN(C)CC(Cc1ccccc1)C(=O)c1cc(O)ccc1O.Cl (racemic)
159 °C	COc1ccccc1C(=O)C(Cc1ccccc1)CN(C)C.Cl (racemic)
135.3 °C	CN(C)CC(Cc1ccccc1)C(=O)c1ccc2ccccc2c1.Cl (racemic)
138.7 °C	CN(C)CC(Cc1ccccc1)C(=O)c1ccc2ccc3ccccc3c2c1.Cl (racemic)
123 °C	CN(C)CC(Cc1ccccc1)C(=O)c1ccccc1O.Cl (racemic)
88 to 95 °C	COc1ccc2cc(C(=O)C(Cc3ccccc3)CN(C)C)ccc2c1.Cl (racemic)
134 to 134.8 °C	CN(C)CC(Cc1ccccc1)C(=O)c1ccccc1-c1ccccc1.Cl (racemic)
150.3 °C	CN(C)CC(Cc1ccccc1)C(=O)c1ccc(F)cc1Cl.Cl (racemic)
111 °C	COc1cccc(C(=O)C(Cc2ccccc2F)CN(C)C)c1.Cl (racemic)
141 °C	COc1cccc(C(=O)C(Cc2cccc(F)c2)CN(C)C)c1.Cl (racemic)
138 °C	COc1cccc(C(=O)C(Cc2ccc(F)cc2)CN(C)C)c1.Cl (racemic)
134 °C	COc1ccc(CC(CN(C)C)C(=O)c2cccc(OC)c2)cc1.Cl (racemic)
104 °C	CN(C)CC(Cc1ccccc1)C(=O)c1cccc(C(F)(F)F)c1.Cl (racemic)
128 °C	COc1cccc(C(=O)C(Cc2ccc(F)c(F)c2)CN(C)C)c1.Cl (racemic)
